Results reported in patent publication US11045411B2, “Process for treating keratin materials using amide, acid or ester c-glycoside derivatives, and cosmetic composition containing same” (L'OREAL, priority 2015, dated 2021).
“And” between values parts separate entries of the source, which are not always exact repeats. Equal values may be shown once.

Legend:
[1] = test system: normal human epidermal keratinocytes; assay: Synthesis of total glycosaminoglycans, [3H]-glucosamine incorporation in normal human epidermal keratinocytes; assay type: cell-based; conditions: for % relative to control, glucosamine incorporation / Mean value, radioactive glucosamine incorporated: 72 hours; for incorporation of radioactive glucosamine: result in words
Protocol: The study is carried out by measuring the incorporation of radioactive glucosamine into the matrix neosynthesized by cultures of normal human epidermal keratinocytes. The incorporation of radioactive [^3H]-glucosamine indicates a specific neosynthesis of total glycosaminoglycans.
The test is carried out on a culture of normal human epidermal keratinocytes in a 96-well plate and cultured in culture medium for 24 hours:
Culture medium: Keratinocytes-SFM supplemented with 0.5 ng/ml epidermal growth factor (EGF), 25 μg/ml pituitary extract, 25 μg/ml gentamycin.
Culture conditions: 37° C.; 5% CO2
The medium was then replaced with culture medium containing or not containing (control) the compound (I) tested or the references 4-nitrophenyl-B-D-xylopyranoside (tested at 300 μM) and 4-methylumbelliferyl-B-D-xylopyranoside (tested at 54 μM) or the solvent control (DMSO at 0.1%), then the cells were incubated for 72 hours with addition of the [^3H]-glucosamine label for the final 24 hours of incubation.
The test was carried out with 3 assays for each compound tested, at the concentrations of 1, 10, 100 and 300 μM.
At the end of the incubation, the glycosaminoglycans were extracted from the cells with a chaotropic buffer. The level of radioactive glucosamine incorporated is measured at the end of the test by adsorption of the anionic molecules on Q-sepharose beads, followed by desorption of the molecules having low and medium anionicity with 6M urea plus 0.2 M NaCl. Once washed, the radioactivity incorporated into the very […] molecules remaining on the support is counted.
The results were evaluated relative to a control constituted of cells which had not been treated with the compound (I).
A positive control (TGFβ at 0.25 ng/ml) known to stimulate GAG synthesis was introduced into the test carried as a positive reference.

GLUT-1 = GLUT-1 expression in normal human keratinocytes by immuno labeling; assay type: cell-based; conditions: for GLUT-1 expression vs 100% control: 48 hours, n=3; for expression of the GLUT-1 protein: result in words
Protocol: Normal human keratinocytes (NHKs) were seeded and cultured in culture medium for 24 hours and then in test medium for a further 24 hours. After incubation, the medium was replaced with test medium containing or not containing (control) the test compounds or the references, and then the cells were incubated for 48 hours. All the experimental conditions were performed in n=3. After incubation, the culture medium was removed and the cells were rinsed, fixed and permeabilized. GLUT-1 expression was determined by immuno labeling.

| Compound | % relative to control, glucosamine incorporation ([1]; 54 μM) [%] | Mean value, radioactive glucosamine incorporated ([1]; 54 μM) [cpm] | % relative to control, glucosamine incorporation ([1]; 300 μM) [%] | Mean value, radioactive glucosamine incorporated ([1]; 300 μM) [cpm] | % relative to control, glucosamine incorporation ([1]; 1 μM) [%] | Mean value, radioactive glucosamine incorporated ([1]; 1 μM) [cpm] | % relative to control, glucosamine incorporation ([1]; 10 μM) [%] | Mean value, radioactive glucosamine incorporated ([1]; 10 μM) [cpm] | % relative to control, glucosamine incorporation ([1]; 100 μM) [%] | Mean value, radioactive glucosamine incorporated ([1]; 100 μM) [cpm] | incorporation of radioactive glucosamine ([1]; concentration of 1 μM) | GLUT-1 expression vs 100% control (GLUT-1; compound at 10 μM) | expression of the GLUT-1 protein (GLUT-1) | incorporation of radioactive glucosamine ([1]; concentration of 10 μM) | incorporation of radioactive glucosamine ([1]; concentration of 300 μM) | incorporation of radioactive glucosamine ([1]; concentration of 100 μM) | GLUT-1 expression vs 100% control (GLUT-1; Reference 2 mM metformine) |
| --- | --- | --- | --- | --- | --- | --- | --- | --- | --- | --- | --- | --- | --- | --- | --- | --- | --- |
| Cc1cc(=O)oc2cc(O[C@@H]3OC[C@@H](O)[C@H](O)[C@H]3O)ccc12 [4-methylumbelliferyl-β-D-xylopyranoside, 4-methylumbelliferyl-B-D-xylopyranoside, reference compound] | 213 | 32202 | – | – | – | – | – | – | – | – | – | – | – | – | – | – | – |
| O=[N+]([O-])c1ccc(O[C@@H]2OC[C@@H](O)[C@H](O)[C@H]2O)cc1 [4-nitrophenyl β-D-xylopyranoside, 4-nitrophenyl-B-D-xylopyranoside, reference compound] | – | – | 207 | 31280 | – | – | – | – | – | – | – | – | – | – | – | – | – |
| CNC(=O)C(O)C1O[C@H](CO)[C@@H](O)[C@H](O)[C@H]1O (stereo partly shown) [Compound 1] | – | – | 97 | 16850 | 125 | 21591 | 117 | 20216 | 118 | 20451 | stimulate the incorporation of radioactive glucosamine | 159% (p < 0.05) | very significantly stimulated | – | – | – | – |
| CCCNC(=O)C(O)C1O[C@H](CO)[C@@H](O)[C@H](O)[C@H]1O (stereo partly shown) [Compound 2] | – | – | 127 | 16929 | 110 | 14638 | 126 | 16779 | 123 | 16435 | – | – | – | stimulate the incorporation of radioactive glucosamine | – | – | – |
| CCCCCCCCCCCCCCNC(=O)C(O)C1O[C@H](CO)[C@@H](O)[C@H](O)[C@H]1O (stereo partly shown) [Compound 4] | – | – | – | – | – | – | – | – | – | – | – | 142% (p < 0.01) | very significantly stimulated | – | – | – | – |
| CNC(=O)C(O)C1OC[C@@H](O)[C@H](O)[C@H]1O (stereo partly shown) [Compound 5] | – | – | 116 | 15495 | 134 | 17792 | 121 | 16133 | 119 | 15835 | stimulate the incorporation of radioactive glucosamine | – | – | – | – | – | – |
| CNC(=O)C(O)C1O[C@@H](C)[C@H](O)[C@@H](O)[C@H]1O (stereo partly shown) [Compound 9] | – | – | 169 | 22845 | 120 | 16162 | 114 | 15439 | 131 | 17655 | – | – | – | – | stimulates the incorporation of radioactive glucosamine | – | – |
| CNC(=O)C(O)C1O[C@H](CO)[C@@H](O)[C@H](O)[C@@H]1O (stereo partly shown) [Compound 13] | – | – | 139 | 18804 | 119 | 16090 | 129 | 17340 | 134 | 18139 | – | – | – | stimulate the incorporation of radioactive glucosamine | – | – | – |
| CNC(=O)C(O)C1O[C@H](CO)[C@H](O)[C@H](O)[C@H]1O (stereo partly shown) [Compound 17] | – | – | 108 | 14498 | 129 | 17387 | 123 | 16614 | 132 | 17861 | stimulates the incorporation of radioactive glucosamine | – | – | stimulates the incorporation of radioactive glucosamine | – | stimulates the incorporation of radioactive glucosamine | – |
| CNC(=O)C(O)C1O[C@H](CO)[C@@H](OC2O[C@H](CO)[C@H](O)[C@H](O)[C@H]2O)[C@H](O)[C@H]1O (stereo partly shown) [Compound 21] | – | – | 134 | 17429 | 142 | 18416 | 136 | 17611 | 137 | 17796 | stimulates the incorporation of radioactive glucosamine | – | – | stimulates the incorporation of radioactive glucosamine | stimulates the incorporation of radioactive glucosamine | – | – |
| CN(C)C(=N)N=C(N)N [metformine, reference compound] | – | – | – | – | – | – | – | – | – | – | – | – | – | – | – | – | 252% (p < 0.01) and 296% (p < 0.001) |
